Measurements as given in patent US11541028B2, “Peptide pharmaceuticals for treatment of NASH and other disorders” (Mederis Diabetes LLC, priority 2018, dated 2023).
Bridge positions count the residues as written; N and C are the ends. Square brackets hold non-standard residues; d marks the D form. Peptide text beside a SMILES is read from it. * marks the point of attachment. Melibiouronoyl(1β-O-dodecyl) = CCCCCCCCCCCCO[C@@H]1O[C@H](CO[C@H]2O[C@H](C(=O)*)[C@H](O)[C@H](O)[C@H]2O)[C@@H](O)[C@H](O)[C@H]1O; Aib = CC(C)(N)C(=O)O

Experiments:
[1] = biological target: T1, human GLP-1 receptor (Homo sapiens, UniProt P43220); test: DiscoveRx LeadHunter cellular assay, cAMP stimulation, GLP-1 receptor in CHO cells; assay type: cell-based; conditions: human GLP-1 receptor in CHO cells (DiscoveRx); read-out: EC50 cAMP GLP-1 R
T1 construct: host or cells: CHO cells
Procedure: (§1) A further series of cellular assays was carried out with standard cellular assays (DiscoveRx, LeadHunter assays) using readout of cAMP stimulation or arrestin activation. Compounds were weighed precisely in an amount of about 1 mg and shipped to DiscoveRx for dilution and assay.

[2] = biological target: T2, human glucagon receptor (Homo sapiens, UniProt P47871); test: DiscoveRx LeadHunter cellular assay, cAMP stimulation, glucagon receptor in CHO cells; assay type: cell-based
T2 construct: host or cells: CHO cells
T2 sequence (P47871 26-477): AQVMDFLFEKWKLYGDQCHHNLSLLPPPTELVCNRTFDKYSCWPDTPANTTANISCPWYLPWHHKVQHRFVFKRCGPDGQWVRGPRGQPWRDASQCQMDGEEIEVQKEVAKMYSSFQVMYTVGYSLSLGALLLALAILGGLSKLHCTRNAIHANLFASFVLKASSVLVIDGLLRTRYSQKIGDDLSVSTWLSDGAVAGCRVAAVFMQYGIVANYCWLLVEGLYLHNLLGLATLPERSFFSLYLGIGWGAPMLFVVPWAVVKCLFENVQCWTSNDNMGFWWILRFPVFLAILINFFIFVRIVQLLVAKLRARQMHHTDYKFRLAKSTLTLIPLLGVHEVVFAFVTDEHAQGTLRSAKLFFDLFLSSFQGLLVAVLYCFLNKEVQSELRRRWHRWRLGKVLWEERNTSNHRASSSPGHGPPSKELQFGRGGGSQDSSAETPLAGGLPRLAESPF
Procedure: as §1

T1 sequence (P43220 24-463): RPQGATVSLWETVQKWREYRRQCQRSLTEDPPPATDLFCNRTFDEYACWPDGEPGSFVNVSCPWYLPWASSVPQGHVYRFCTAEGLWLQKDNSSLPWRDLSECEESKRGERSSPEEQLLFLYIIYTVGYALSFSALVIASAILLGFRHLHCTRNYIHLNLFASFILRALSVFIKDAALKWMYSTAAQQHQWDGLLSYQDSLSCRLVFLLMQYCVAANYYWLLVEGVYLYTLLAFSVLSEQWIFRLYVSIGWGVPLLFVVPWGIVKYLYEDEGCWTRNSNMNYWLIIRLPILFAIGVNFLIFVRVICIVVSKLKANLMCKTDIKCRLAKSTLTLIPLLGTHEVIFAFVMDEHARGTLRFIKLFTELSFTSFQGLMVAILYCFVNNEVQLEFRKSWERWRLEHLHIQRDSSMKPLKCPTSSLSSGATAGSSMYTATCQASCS

CCCCCCCCCCCCO[C@@H]1O[C@H](CO[C@H]2O[C@H](C(=O)NCCCC[C@H](NC(=O)[C@H](CC(=O)O)NC(=O)[C@H](CO)NC(=O)[C@@H](NC(=O)[C@H](Cc3ccccc3)NC(=O)[C@@H](NC(=O)CNC(=O)[C@H](CCC(N)=O)NC(=O)C(C)(C)NC(=O)[C@@H](N)Cc3c[nH]cn3)[C@@H](C)O)[C@@H](C)O)C(=O)N[C@@H](CO)C(=O)N[C@@H](CCCCN)C(=O)N[C@@H](Cc3ccc(O)cc3)C(=O)N[C@@H](CC(C)C)C(=O)N[C@@H](CC(=O)O)C(=O)N[C@H]3CCC(=O)NCCCC[C@@H](C(=O)N[C@@H](CCC(=O)O)C(=O)N[C@@H](Cc4ccccc4)C(=O)N[C@H](C(=O)N[C@@H](CCC(=O)O)C(=O)N[C@@H](Cc4c[nH]c5ccccc45)C(=O)N[C@@H](CC(C)C)C(=O)N[C@@H](CC(C)C)C(=O)N[C@@H](CCC(N)=O)C(=O)N[C@H](C(=O)O)[C@@H](C)O)[C@@H](C)CC)NC(=O)[C@H](C)NC(=O)[C@H](C)NC(=O)[C@H](CCC(N)=O)NC3=O)[C@H](O)[C@H](O)[C@H]2O)[C@@H](O)[C@H](O)[C@H]1O [EU-A1599] (H-H[Aib]QGTFTSDK(Melibiouronoyl(1β-O-dodecyl))SKYLDEQAAKEFIEWLLQT-OH; lactam 16-20; N-terminus assumed)
EC50 [1]: 0.061 nM
EC50 [2]: 0.317 nM

CCCCCCCCCCCCO[C@@H]1O[C@H](CO[C@H]2O[C@H](C(=O)NCCCC[C@H](N)C(=O)NCCCC[C@H](NC(=O)[C@@H](NC(=O)[C@H](Cc3ccccc3)NC(=O)[C@H](CCC(=O)O)NC(=O)[C@@H]3CCCCNC(=O)CC[C@H](NC(=O)[C@H](CC(=O)O)NC(=O)[C@H](CC(C)C)NC(=O)[C@H](Cc4ccc(O)cc4)NC(=O)[C@H](CCCCN)NC(=O)[C@H](CO)NC(=O)[C@H](Cc4ccc(O)cc4)NC(=O)[C@H](CC(=O)O)NC(=O)[C@H](CO)NC(=O)[C@@H](NC(=O)[C@H](Cc4ccccc4)NC(=O)[C@@H](NC(=O)CNC(=O)[C@H](CCC(N)=O)NC(=O)C(C)(C)NC(=O)[C@@H](N)Cc4c[nH]cn4)[C@@H](C)O)[C@@H](C)O)C(=O)N[C@@H](CCC(N)=O)C(=O)N[C@@H](C)C(=O)N[C@@H](C)C(=O)N3)[C@@H](C)CC)C(=O)N[C@@H](Cc3c[nH]c4ccccc34)C(=O)N[C@@H](CC(C)C)C(=O)N[C@@H](CC(C)C)C(=O)N[C@@H](CCC(N)=O)C(=O)N[C@H](C(N)=O)[C@@H](C)O)[C@H](O)[C@H](O)[C@H]2O)[C@@H](O)[C@H](O)[C@H]1O [EU-A1601]
EC50 [1]: 0.007 nM
EC50 [2]: 0.048 nM

CCCCCCCCCCCCCCO[C@@H]1O[C@H](CO[C@H]2O[C@H](C(=O)NCCCC[C@H](N)C(=O)NCCCC[C@H](NC(=O)[C@@H](NC(=O)[C@H](Cc3ccccc3)NC(=O)[C@H](CCC(=O)O)NC(=O)[C@@H]3CCCCNC(=O)CC[C@H](NC(=O)[C@H](CC(=O)O)NC(=O)[C@H](CC(C)C)NC(=O)[C@H](Cc4ccc(O)cc4)NC(=O)[C@H](CCCCN)NC(=O)[C@H](CO)NC(=O)[C@H](Cc4ccc(O)cc4)NC(=O)[C@H](CC(=O)O)NC(=O)[C@H](CO)NC(=O)[C@@H](NC(=O)[C@H](Cc4ccccc4)NC(=O)[C@@H](NC(=O)CNC(=O)[C@H](CCC(N)=O)NC(=O)C(C)(C)NC(=O)[C@@H](N)Cc4c[nH]cn4)[C@@H](C)O)[C@@H](C)O)C(=O)N[C@@H](CCC(N)=O)C(=O)N[C@@H](C)C(=O)N[C@@H](C)C(=O)N3)[C@@H](C)CC)C(=O)N[C@@H](Cc3c[nH]c4ccccc34)C(=O)N[C@@H](CC(C)C)C(=O)N[C@@H](CC(C)C)C(=O)N[C@@H](CCC(N)=O)C(=O)N[C@H](C(N)=O)[C@@H](C)O)[C@H](O)[C@H](O)[C@H]2O)[C@@H](O)[C@H](O)[C@H]1O [EU-A1602]
EC50 [1]: 0.035 nM
EC50 [2]: 0.162 nM

CCCCCCCCCCCCO[C@@H]1O[C@H](CO[C@H]2O[C@H](C(=O)N[C@@H](CCC(=O)NCCCC[C@H](NC(=O)[C@@H](NC(=O)[C@H](Cc3ccccc3)NC(=O)[C@H](CCC(=O)O)NC(=O)[C@@H]3CCCCNC(=O)CC[C@H](NC(=O)[C@H](CC(=O)O)NC(=O)[C@H](CC(C)C)NC(=O)[C@H](Cc4ccc(O)cc4)NC(=O)[C@H](CCCCN)NC(=O)[C@H](CO)NC(=O)[C@H](Cc4ccc(O)cc4)NC(=O)[C@H](CC(=O)O)NC(=O)[C@H](CO)NC(=O)[C@@H](NC(=O)[C@H](Cc4ccccc4)NC(=O)[C@@H](NC(=O)CNC(=O)[C@H](CCC(N)=O)NC(=O)C(C)(C)NC(=O)[C@@H](N)Cc4c[nH]cn4)[C@@H](C)O)[C@@H](C)O)C(=O)N[C@@H](CCC(N)=O)C(=O)N[C@@H](C)C(=O)N[C@@H](C)C(=O)N3)[C@@H](C)CC)C(=O)N[C@@H](Cc3c[nH]c4ccccc34)C(=O)N[C@@H](CC(C)C)C(=O)N[C@@H](CC(C)C)C(=O)N[C@@H](CCC(N)=O)C(=O)N[C@H](C(N)=O)[C@@H](C)O)C(=O)O)[C@H](O)[C@H](O)[C@H]2O)[C@@H](O)[C@H](O)[C@H]1O [EU-A1606]
EC50 [1]: 0.017 nM
EC50 [2]: 0.058 nM

CCCCCCCCCCCCCCO[C@@H]1O[C@H](CO[C@H]2O[C@H](C(=O)N[C@@H](CCC(=O)NCCCC[C@H](NC(=O)[C@@H](NC(=O)[C@H](Cc3ccccc3)NC(=O)[C@H](CCC(=O)O)NC(=O)[C@@H]3CCCCNC(=O)CC[C@H](NC(=O)[C@H](CC(=O)O)NC(=O)[C@H](CC(C)C)NC(=O)[C@H](Cc4ccc(O)cc4)NC(=O)[C@H](CCCCN)NC(=O)[C@H](CO)NC(=O)[C@H](Cc4ccc(O)cc4)NC(=O)[C@H](CC(=O)O)NC(=O)[C@H](CO)NC(=O)[C@@H](NC(=O)[C@H](Cc4ccccc4)NC(=O)[C@@H](NC(=O)CNC(=O)[C@H](CCC(N)=O)NC(=O)C(C)(C)NC(=O)[C@@H](N)Cc4c[nH]cn4)[C@@H](C)O)[C@@H](C)O)C(=O)N[C@@H](CCC(N)=O)C(=O)N[C@@H](C)C(=O)N[C@@H](C)C(=O)N3)[C@@H](C)CC)C(=O)N[C@@H](Cc3c[nH]c4ccccc34)C(=O)N[C@@H](CC(C)C)C(=O)N[C@@H](CC(C)C)C(=O)N[C@@H](CCC(N)=O)C(=O)N[C@H](C(N)=O)[C@@H](C)O)C(=O)O)[C@H](O)[C@H](O)[C@H]2O)[C@@H](O)[C@H](O)[C@H]1O [EU-A1607]
EC50 [1]: 0.022 nM
EC50 [2]: 0.126 nM

CCCCCCCCCCCCO[C@@H]1O[C@H](CO[C@H]2O[C@H](C(=O)NCCCC[C@H](N)C(=O)NCCCC[C@H](NC(=O)[C@@H](NC(=O)[C@H](Cc3ccccc3)NC(=O)[C@H](CCC(=O)O)NC(=O)[C@@H]3CCCCNC(=O)CC[C@H](NC(=O)[C@H](CC(=O)O)NC(=O)[C@H](CC(C)C)NC(=O)[C@H](Cc4ccc(O)cc4)NC(=O)[C@H](CCCCN)NC(=O)[C@H](CO)NC(=O)[C@H](Cc4ccc(O)cc4)NC(=O)[C@H](CC(=O)O)NC(=O)[C@H](CO)NC(=O)[C@@H](NC(=O)[C@H](Cc4ccccc4)NC(=O)[C@@H](NC(=O)CNC(=O)[C@H](CCC(N)=O)NC(=O)C(C)(C)NC(=O)[C@@H](N)Cc4c[nH]cn4)[C@@H](C)O)[C@@H](C)O)C(=O)N[C@@H](CCC(N)=O)C(=O)N[C@@H](C)C(=O)N[C@@H](C)C(=O)N3)[C@@H](C)CC)C(=O)N[C@@H](Cc3c[nH]c4ccccc34)C(=O)N[C@@H](CC(C)C)C(=O)N[C@@H](CC(C)C)C(=O)N[C@@H](CCC(N)=O)C(=O)N[C@H](C(=O)O)[C@@H](C)O)[C@H](O)[C@H](O)[C@H]2O)[C@@H](O)[C@H](O)[C@H]1O [EU-A1611]
EC50 [1]: 0.015 nM
EC50 [2]: 0.16 nM
